Data: US12686668B2, “Leukotriene synthesis inhibitors” (Naegis Pharmaceuticals Inc., priority 2019, dated 2026)

How the values were obtained:
[1] = biological target: T1, recombinant human leukotriene A4 hydrolase enzyme (Homo sapiens, UniProt P09960); assay: Amino-peptidase assay, alanine-4-nitroanalide; format: biochemical; details: negative values = augmented peptidase activity, read-out: % Inhibition aminopeptidase-Alanine-4-nitroanalide activity of LTA4H (3 μM)
T1 construct: purchased Cayman Chemical 10007817
T1 sequence (P09960 1-611): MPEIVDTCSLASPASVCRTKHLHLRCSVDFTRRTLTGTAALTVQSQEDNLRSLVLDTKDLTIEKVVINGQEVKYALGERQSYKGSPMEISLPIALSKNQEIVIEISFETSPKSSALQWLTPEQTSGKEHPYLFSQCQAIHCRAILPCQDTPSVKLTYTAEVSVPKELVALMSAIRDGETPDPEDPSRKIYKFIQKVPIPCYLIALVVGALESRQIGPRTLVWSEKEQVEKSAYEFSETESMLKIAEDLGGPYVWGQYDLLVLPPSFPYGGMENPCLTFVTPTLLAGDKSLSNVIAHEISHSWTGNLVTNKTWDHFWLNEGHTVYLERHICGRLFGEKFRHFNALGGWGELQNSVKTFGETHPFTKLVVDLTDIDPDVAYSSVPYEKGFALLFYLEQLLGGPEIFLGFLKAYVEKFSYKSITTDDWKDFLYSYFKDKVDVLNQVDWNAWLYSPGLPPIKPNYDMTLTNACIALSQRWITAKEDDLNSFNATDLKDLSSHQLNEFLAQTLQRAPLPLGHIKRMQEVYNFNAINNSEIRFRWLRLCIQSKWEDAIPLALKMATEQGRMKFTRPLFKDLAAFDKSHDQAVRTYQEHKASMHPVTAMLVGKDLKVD
Method: A series of compound concentrations were pre-incubated in the absence of light with 0.5 μg of recombinant human leukotriene A4 hydrolase enzyme (Cayman Chemical 10007817) in 50 μL assay buffer (50 mM Tris-HCl, 100 mM KCl). The reaction was stimulated by adding 50 μL 6 mM alanine-4-nitroanilide (Sigma Aldrich A9325) in assay buffer. The amount of amino-peptidase activity was measured by determining the change in absorbance at 405 nm due to 4-nitroanaline production and comparing the rate of change to a reference standard (Sigma Aldrich 185310). Amino-peptidase activity was compared to control samples and the level of inhibition was calculated. Compounds that augment peptidase activity are represented by negative values.

[2] = biological target: T1, recombinant human leukotriene A4 hydrolase enzyme; assay: Amino-peptidase assay, PGP; format: biochemical; details: concentration not given
Method: A series of compound concentrations were pre-incubated with 50 ng of recombinant human leukotriene A4 hydrolase enzyme (Cayman Chemical, 10007817) in 50 L assay buffer (50 mM Tris-HCl, 100 mM KCl). The reaction was stimulated by adding 50 L 1 mM proline-glycine-proline (Bachem, H-7284) and incubated for 30 minutes at 37° C. The reaction was stopped with the addition of 150 μL of glacial acetic acid. The amount of free proline released from the peptide was detected through a reaction with ninhydrin. 150 μL of 25 mg/mL ninhydrin (BDH, B10132) in 60:40 acetic acid/water was added to each sample, and boiled for 30 minutes at 100° C. and once samples had cooled to room temperature, 350 μL of toluene was added to extract the ninhydrin reaction product. The amount of free proline was determined by comparing the absorbance at 520 nm to the L-proline (Sigma Aldrich, 81709) reference standard. Inhibition of free proline production was calculated based on control samples.

[3] = system: LTC4 production in MC/9 cells; assay: MC/9 HPLC assay, inhibition of LTC4 production; format: cell-based; details: Mus musculus; for inhibition at 3 µM: MC9, 3 μM, A23187 stimulated; for inhibition at 1 µM: MC9, Table 2 column 3, no concentration in head (1 μM according to b732), read-out: % Inhibition LTC4
Method: (§1) Cultured MC/9 cells (3×10^6 cells) in 1 mL HBSS were pre-incubated with a series of concentrations of compound solubilized in DMSO for 30 minutes. Production of leukotrienes were stimulated with the addition of 1 μM calcium ionophore (A23187), diluted from a 4 mM DMSO stock in HBSS, and incubated at room temperature for 20 minutes. The reaction was stopped with the addition of 500 μL of methanol containing 20 ng/mL prostaglandin B2 as an internal standard. Samples were collected and stored at −20° C. at least 2 hr or overnight before centrifuged at 13,000 rpm for 15 minutes and loaded onto C18 SEP-PAK columns (Canadian Lifesciences IS12000) for solid phase extraction. The leukotrienes were analyzed by HPLC using an ACE C18 column (4.5 mm×150 mm, 5 m) eluted with acetonitrile/methanol/water mixture with H3PO4, pH 3.5 (37:26:37) with a flow rate of 1.8 mL/min. The amount of LTB4 (Cayman Chemical, 20110) and LTC4 (Cayman Chemical, 20210) were calculated based on reference standards and the level of inhibition of LTB4 production induced by the test compounds was calculated relative to control samples. The results are provided in Table 2, where Compound No. refers to the compounds identified in Table 1.

[4] = system: LTB4 production in MC/9 cells; assay: MC/9 HPLC assay, inhibition of LTB4 production; format: cell-based; details: Mus musculus, MC9, Table 2 column 4, no concentration in head (1 μM according to b732), read-out: % Inhibition LTB4
Method: as §1

[5] = system: LTB4 production in porcine or human whole blood; assay: Whole blood HPLC assay, inhibition of LTB4 production; format: cell-based; details: 5 point curve, porcine or human whole blood (not specified)
Method: Porcine or human whole blood (1 mL) was pre-incubated with a series of concentrations of compound solubilized in DMSO for 30 minutes. Production of leukotrienes were stimulated with the addition of 20 μM calcium ionophore (A23187), diluted from a 4 mM DMSO stock in HBSS, and incubated at room temperature for 20 minutes. In porcine blood 20 μM arachidonic acid was added in addition to the calcium ionophore. The blood was centrifuged at 2,000 rpm for 15 minutes, and the plasma fraction removed for further processing. Plasma samples were diluted with 500 μL acidified water (HCl pH 3.0) and loaded onto C18 SEP-PAK columns (Canadian Lifesciences IS12000) for solid phase extraction. The leukotrienes were analyzed by HPLC using an ACE C18 column (4.5 mm×150 mm, 5 m) eluted with acetonitrile/methanol/water mixture with H3PO4, pH 3.5 (37:26:37) with a flow rate of 1.8 mL/min. The amount of LTB4 (Cayman Chemical, 20110) was calculated based on reference standards and the level of inhibition of LTB4 production induced by the test compounds was calculated relative to control samples. The results provided in Table 3 are IC50 values calculated based on a 5 point curve, where Compound No. refers to the compounds identified in Table 1.

Compound | inhibition at 3 µM [1] | % Inhibition aminopeptidase-PGP activity of LTA4H [2] | inhibition at 3 µM [3] | inhibition at 1 µM [4] | IC50 [5] | inhibition at 1 µM [3]
CCC(CCc1ccc(Oc2nc3ccccc3s2)c(OC)c1)N1CCN(C)CC1 (stereo not drawn) [Compound 188, 1-[4-(1,3-benzothiazol-2-yloxy)-3-methoxyphenyl]-3-(4-methylpiperazinyl-1yl)pentane] | < 25% | 25-50% | 10 to 30% |  |  | 
CCC(C)(O)CCc1ccc(Oc2nc3ccccc3o2)cc1 (stereo not drawn) [Compound 146, 1-[4-(1,3-benzoxazol-2-yloxy)phenyl]-3-methylpentan-3-ol] | < 25% |  |  | > 90% | 1000 to 10000 nM | 10 to 30%
CCC(O)CCc1ccc(Oc2nc3ccccc3s2)c(OCC2CC2)c1 (stereo not drawn) [Compound 187, 1-[4-(1,3-benzothiazol-2-yloxy)-3-(cyclopropylmethoxy)-phenyl]-pentan-3-ol] | > 75% | 50-75% | 50 to 70% |  |  | 
OC(c1ccc(Oc2nc3ccccc3s2)c(Cl)c1)C(F)(F)F (stereo not drawn) [Compound 167, 1-[4-(1,3-benzothiazol-2-yloxy)-3-chlorophenyl]-2,2,2-trifluoroethanol] | > 75% |  | 10 to 30% | 10 to 30% | > 10000 nM | 10 to 30%
CC(O)(c1ccc(Oc2nc3c(F)cc(F)cc3s2)cc1)C(F)(F)F (stereo not drawn) [Compound 181, 2-{4-[(4,6-difluoro-1,3-benzothiazol-2-yl)oxy]phenyl}-1,1,1-trifluoropropan-2-ol] | 0 to 50% | >75% | < 10% |  |  | 
CCC(O)CCc1ccc(Oc2nc3ccccc3s2)c(OC2CCCC2)c1 (stereo not drawn) [Compound 186, 1-[4-(1,3-benzothiazol-2-yloxy)-3-(cyclopentyloxy)-phenyl]pentan-3-ol] | > 75% | >75% | 70 to 90% |  |  | 
CCC(=O)CCc1ccc(Oc2nc3ccccc3s2)c(Cl)c1 [Compound 149, 1-[4-(1,3-benzothiazol-2-yloxy)-3-chlorophenyl]pentan-3-one] | < 25% | 25-50% |  | 50 to 70% |  | 30 to 50%
OC(c1ccc(Oc2nc3c(F)cc(F)cc3s2)cc1)C(F)(F)F (stereo not drawn) [Compound 179, 1-{4-[(4,6-difluoro-1,3-benzothiazol-2-yl)oxy]phenyl}-2,2,2-trifluoroethanol] | > 75% | >75% | 10 to 30% |  |  | 
CC(O)(CCc1ccc(Oc2nc3ccccc3o2)cc1)c1ccccc1 (stereo not drawn) [Compound 147, 4-[4-(1,3-benzoxazol-2-yloxy)phenyl]-2-phenylbutan-2-ol] | 50 to 75% | 25-50% |  | > 90% |  | 30 to 50%
CCC(=O)CCc1ccc(Oc2nc3ccccc3s2)c(OC(C)C)c1 [Compound 112, 1-[4-(1,3-benzothiazol-2-yloxy)-3-(iso-propyloxy)-phenyl]pentan-3-one] |  | <25% |  |  |  | 
c1ccc2sc(Oc3ccc(CN4CCCC4)cc3)nc2c1 [Compound 164, 2-[4-(pyrrolidin-1-ylmethyl)phenoxy]-1,3-benzothiazole] | > 75% |  | < 10% |  | 100 to 1000 nM | 
CCC(=O)CCc1ccc(Oc2nc3ccccc3s2)c(F)c1 [Compound 152, 1-[4-(1,3-benzothiazol-2-yloxy)-3-fluorophenyl]-pentan-3-one] | < 25% | 25-50% | 30 to 50% | 50 to 70% |  | 30 to 50%
CC(CCc1ccc(OCc2ccc3ccccc3n2)cc1)N1CCCC1 (stereo not drawn) [Compound 190] | < 25% | 25-50% | 30 to 50% |  |  | 
COc1cc(CCC(O)c2ccccc2)ccc1Oc1nc2ccccc2s1 (stereo not drawn) [Compound 132, 3-[4-(1,3-benzothiazol-2-yloxy)-3-methoxyphenyl]-1-phenylpropan-1-ol] |  |  |  | > 90% | > 10000 nM | 70 to 90%
OC(c1ccc(Oc2nc3ccccc3s2)cc1)C(F)(F)F (stereo not drawn) [Compound 166, 1-[4-(1,3-benzothiazol-2-yloxy)phenyl]-2,2,2-trifluoroethanol] | < 25% |  | 30 to 50% |  | 100 to 1000 nM | 
CCC(O)(CCc1ccc(Oc2nc3c(F)cc(F)cc3s2)c(OC)c1)C(F)(F)F (stereo not drawn) [Compound 107, 1-{4-[(4,6-difluoro-1,3-benzothiazol-2-yl)oxy]-3-methoxyphenyl}-3-(trifluoromethyl)pentan-3-ol] |  |  | > 90% | > 90% | > 10000 nM | 70 to 90%
CC(CCc1ccc(Oc2nc3ccccc3s2)cc1)N1CCCC1 (stereo not drawn) [Compound 156, 2-{4-[3-(pyrrolidin-1-yl)butyl]phenoxy}-1,3-benzothiazole] |  |  |  | > 90% | 100 to 1000 nM | < 10%
CNC(c1ccc(Oc2nc3ccccc3s2)cc1)C(F)(F)F (stereo not drawn) [Compound 178, 1-[4-(1,3-benzothiazol-2-yloxy)phenyl]-2,2,2-trifluoro-N-methylethanamine] | 70 to 90% | 70-90% | < 10% |  |  | 
CC(O)CCc1ccc(Oc2nc3ccccc3s2)cc1 (stereo not drawn) [Compound 141, 4-[4-(1,3-benzothiazol-2-yloxy)phenyl]butan-2-ol] |  |  |  | > 90% | 1000 to 10000 nM | 10 to 30%
CC(CCc1ccc(Oc2nc3ccccc3s2)cc1)N1CCCC1C(=O)O (stereo not drawn) [Compound 157, 1-{4-[4-(1,3-benzothiazol-2-yloxy)phenyl]butan-2-yl}pyrrolidine-2-carboxylic acid] |  |  |  | 70 to 90% | 1000 to 10000 nM | < 10%
